Read-outs that look alike come from different tables or passages of the source.
Legend:
Format in all cases: in vivo
[1] = tested on: Pharbitis purpurea (PHBPU); assay: Post-emergence herbicidal action against PHBPU; details: dosage 320 g/ha
Summary of the method: (§1)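 Post-emergence greenhouse spray, one-leaf stage, 600 l/ha water plus 0.5% additive; WP or EC formulations; application rates 320 g/ha or lower. Visual % damage vs untreated controls at ~3 weeks.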

[2] = tested on: Abutilon theophrasti (ABUTH); assay: Pre-emergence herbicidal action against ABUTH; details: Dosage column 320 g/ha (title prints 3200 g/ha); scored visually after about 3 weeks; 100% = plants have died
Summary of the method: (§2)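 Application rates ran to 320 g/ha or lower, with several dosages tested on the same weeds. The compound, as wettable powder or emulsion concentrate, is sprayed pre-emergence onto soil over sown seeds; greenhouse growth follows, and effect is rated visually after roughly 3 weeks.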

[3] = tested on: Matricaria inodora (MATIN); assay: Post-emergence herbicidal action against MATIN
Summary of the method: as §1

Viola tricolor (VIOTR) [4] = assay: Pre-emergence herbicidal action against VIOTR
Summary of the method: as §2

[5] = tested on: Pharbitis purpurea (PHBPU); assay: Pre-emergence herbicidal action against PHBPU; details: dosage 320 g/ha
Summary of the method: as §2

[6] = tested on: Verconica persica (VERPE); assay: Pre-emergence herbicidal action against VERPE; details: dosage 320 g/ha
Summary of the method: as §2

Setaria viridis (SETVI) [7] = assay: Pre-emergence herbicidal action against SETVI
Summary of the method: as §2

Viola tricolor (VIOTR) [8] = assay: Post-emergence herbicidal action against VIOTR; details: 320 g/ha
Summary of the method: as §1

Lolium rigidum (LOLRI) [9] = assay: Pre-emergence herbicidal action against LOLRI
Summary of the method: as §2

[10] = tested on: Matricaria inodora (MATIN); assay: Pre-emergence herbicidal action against MATIN
Summary of the method: as §2

Oryza sativa (ORYSA) = details: crop plant compatibility
Summary of the method: (§3)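 Effects were read visually as % versus untreated controls (0% = no effect, 100% = death) about 3 weeks post-treatment. Application was a post-emergence spray at the one-leaf stage of WP/EC formulations with 0.5% additive at 600 l/ha. Different dosages are denoted a, b and c.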

Brassica napus (BRSNW) = details: 20 g/ha, crop plant compatibility, in comparison to untreated controls
Summary of the method: (§4)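 Crop injury rated visually in percent against untreated plants roughly 3 weeks after treatment (0% no effect, 100% plants dead). Compounds, as WP or EC with 0.5% additive in 600 l/ha water, were applied to the covering soil right after sowing; greenhouse growth. Suffixes a, b, c denote different dosages.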

[11] = tested on: Triticum aestivum (TRZAS); details: 20 g/ha; crop plant compatibility, effect vs untreated controls
Summary of the method: as §4

Setaria viridis (SETVI) [12] = assay: Post-emergence herbicidal action against SETVI
Summary of the method: as §1

Avena fatua (AVEFA) = assay: Pre-emergence herbicidal action against AVEFA; details: visual scoring after about 3 weeks vs untreated controls
Summary of the method: as §2

[13] = tested on: Verconica persica (VERPE); assay: Post-emergence herbicidal action against VERPE
Summary of the method: as §1

Lolium rigidum (LOLRI) [14] = assay: Post-emergence herbicidal action against LOLRI; details: dosage 320 g/ha
Summary of the method: as §1

[15] = tested on: Digitaria sanguinalis (DIGSA); assay: Post-emergence herbicidal action against DIGSA; details: visual rating about 3 weeks after treatment
Summary of the method: as §1

[16] = tested on: Amaranthus retroflexus (AMARE); assay: Pre-emergence herbicidal action against AMARE; details: visual scoring after about 3 weeks vs untreated controls
Summary of the method: as §2

[17] = tested on: Alopecurus myosuroides (ALOMY); assay: Post-emergence herbicidal action against ALOMY; details: visual rating about 3 weeks after treatment vs untreated controls (100% = plants have died, 0% = like control plants)
Summary of the method: as §1

[18] = tested on: Echinochloa crus-galli (ECHCG); assay: Pre-emergence herbicidal action against ECHCG; details: dosage 320 g/ha
Summary of the method: as §2

[19] = tested on: Digitaria sanguinalis (DIGSA); assay: Pre-emergence herbicidal action against DIGSA
Summary of the method: as §2

[20] = tested on: Polygonum convolvulus (POLCO); assay: Pre-emergence herbicidal action against POLCO
Summary of the method: as §2

[21] = tested on: Alopecurus myosuroides (ALOMY); assay: Pre-emergence herbicidal action against ALOMY; details: scored visually after about 3 weeks, 100% = plants have died
Summary of the method: as §2

[22] = tested on: Polygonum convolvulus (POLCO); assay: Post-emergence herbicidal action against POLCO; details: dosage 320 g/ha
Summary of the method: as §1

[23] = tested on: Amaranthus retroflexus (AMARE); assay: Post-emergence herbicidal action against AMARE; details: 320 g/ha, visual rating about 3 weeks after treatment
Summary of the method: as §1

Zea mays (ZEAMX) = details: crop plant compatibility, 80 g/ha, effect vs untreated controls
Summary of the method: as §3

[24] = tested on: Triticum aestivum (TRZAS); details: crop plant compatibility, 80 g/ha, effect vs untreated controls
Summary of the method: as §3

Glycine max (GLXMA) = details: pre-emergence, 80 g/ha, crop plant compatibility, in comparison to untreated controls
Summary of the method: as §4

[25] = tested on: Echinochloa crus-galli (ECHCG); assay: Post-emergence herbicidal action against ECHCG; details: dosage 320 g/ha
Summary of the method: as §1

[26] = 80 g/ha, effect in comparison to untreated controls

SMILES	Post-emergence action against PHBPU in % [1] [%]	Pre-emergence action against VIOTR in % (Viola tricolor (VIOTR) [4]; 320 g/ha, Viola tricolor) [%]	Pre-emergence action against VIOTR in % (Viola tricolor (VIOTR) [4]; dosage 80 g/ha) [%]	Pre-emergence action against PHBPU in % [5] [%]	Pre-emergence action against SETVI in % (Setaria viridis (SETVI) [7]; dosage 320 g/ha) [%]	Post-emergence action against VIOTR in % (Viola tricolor (VIOTR) [8]) [%]	Pre-emergence action against LOLRI in % (Lolium rigidum (LOLRI) [9]; dosage 320 g/ha) [%]	Post-emergence action against ORYSA in % (Oryza sativa (ORYSA); [26]) [%]	Post-emergence action against SETVI in % (Setaria viridis (SETVI) [12]; dosage 320 g/ha) [%]	Post-emergence action against VERPE in % ([13]; 320 g/ha, VERPE) [%]	Post-emergence action against VERPE in % ([13]; dosage 80 g/ha) [%]	Post-emergence action against LOLRI in % (Lolium rigidum (LOLRI) [14]) [%]	Pre-emergence action against AMARE in % ([16]; 320 g/ha) [%]	Post-emergence action against ALOMY in % ([17]; 320 g/ha) [%]	Pre-emergence action against ECHCG in % [18] [%]	Pre-emergence action against DIGSA in % ([19]; dosage 320 g/ha) [%]	Pre-emergence action against POLCO in % ([20]; dosage 80 g/ha) [%]	Pre-emergence action against POLCO in % ([20]; dosage 320 g/ha) [%]	Pre-emergence action against ALOMY ([21]; 320 g/ha) [%]	Post-emergence action against POLCO in % [22] [%]	other results
COC(=O)[C@@H](C)Oc1nn(-c2ncccc2F)c(-c2cncc(F)c2)c1Br [Example I-15]	90	100	100	80	100	80	100	10	90	80	80	80	100	90	90	100	90	100	100		Pre-emergence action against ABUTH [2]: 90%; Post-emergence action against MATIN in % ([3]; dosage 80 g/ha): 80%; Post-emergence action against MATIN in % ([3]; dosage 320 g/ha): 90%; Pre-emergence action against VERPE in % [6]: 100%; Pre-emergence action against SETVI in % (Setaria viridis (SETVI) [7]; dosage 80 g/ha): 100%; Pre-emergence action against LOLRI in % (Lolium rigidum (LOLRI) [9]; dosage 80 g/ha): 90%; Pre-emergence action against MATIN in % ([10]; dosage 80 g/ha): 100%; Pre-emergence action against MATIN in % ([10]; dosage 320 g/ha): 100%; Post-emergence action against ORYSA in % (Oryza sativa (ORYSA); 20 g/ha, effect vs untreated controls): 0%; Pre-emergence action against BRSNW in % (Brassica napus (BRSNW)): 10%; Pre-emergence action against TRZAS [11]: 10%; Post-emergence action against SETVI in % (Setaria viridis (SETVI) [12]; dosage 80 g/ha): 80%; Pre-emergence action against AVEFA in % (Avena fatua (AVEFA); 80 g/ha): 80%; Pre-emergence action against AVEFA in % (Avena fatua (AVEFA); 320 g/ha): 100%; Post-emergence action against DIGSA in % ([15]; 80 g/ha): 90%; Post-emergence action against DIGSA in % ([15]; 320 g/ha): 90%; Pre-emergence action against AMARE in % ([16]; 80 g/ha): 100%; Post-emergence action against ALOMY in % ([17]; 80 g/ha): 90%; Pre-emergence action against DIGSA in % ([19]; 80 g/ha, visual scoring after about 3 weeks vs untreated controls): 100%; Pre-emergence action against ALOMY ([21]; 80 g/ha): 100%
O=C(O)COc1nn(-c2ncccc2C(F)(F)F)c(-c2cncc(F)c2)c1Br [Example I-230]	90	90	80	90	100	80		0	80	80	80		80		90		80	90		80	Post-emergence action against AMARE in % [23]: 90%; Post-emergence action against ZEAMX in % (Zea mays (ZEAMX)): 0%; Post-emergence action against TRZAS in % [24]: 10%; Pre-emergence action against GLXMA in % (Glycine max (GLXMA)): 20%; Post-emergence action against ECHCG in % [25]: 80%
C[C@@H](Oc1nn(-c2ccccn2)c(-c2ccc(Cl)nc2)c1Cl)C(=O)O [Example I-238]	80	90				80	90	0				80	80	80		90		80	90	80	Post-emergence action against AMARE in % [23]: 80%; Post-emergence action against ORYSA in % (Oryza sativa (ORYSA); 320 g/ha, effect in comparison to untreated controls): 10%; Post-emergence action against ZEAMX in % (Zea mays (ZEAMX)): 10%; Pre-emergence action against GLXMA in % (Glycine max (GLXMA)): 20%; Post-emergence action against ECHCG in % [25]: 80%
